Patent US20220267288A1, “CARDIAC THERAPEUTIC” (priority 2019, published 2022)
Like-named read-outs stand apart in the source and are kept apart here. Marks after values point to notes of the source that are not given here.

Columns and labels:
H9c2 cells = experiment: Reduction of intracellular ATP (Mitochondrial ToxGlo) in differentiated H9c2 cells; assay type: cell-based; details: Rattus norvegicus; H9c2 cells, 6 h exposure; read-out: decrease in intracellular ATP levels IC50
Protocol: H9c2 cell line was purchased from American Tissue Type Collection (ATCC) (Manassas, Va.). The cells were cultured in low-glucose DMEM growth media (Cat No: 31600, Thermo Fisher Scientific, Waltham, Mass.) supplemented with 1.5 g/L sodium bicarbonate, 25 mM HEPES, 10% fetal bovine serum (FBS) (GE Healthcare, Singapore), 100 units/mL penicillin, 100 μg/mL streptomycin and 250 ng/mL amphotericin B in 75-cm^2 tissue-culture flasks at 37° C. in a humidified atmosphere of 5% CO2. Cells were fed every 2-3 days and sub-cultured once 70-80% confluency was achieved to prevent the loss of differentiation potential. For differentiation, H9c2 cells were seeded at a density of 100,000 cells/well in 12-well plates. The cells were maintained for 1 day in low-glucose high-serum growth media to allow for cell attachment. Subsequently, cells were differentiated using 1 μM ATRA.
H9c2 cells were seeded in a white chimney plate and differentiated. The media was changed to DMEM with 10 mM galactose, 2 mM glutamine (6 mM final), 5 mM HEPES, 1 mM sodium pyruvate, 100 U/mL penicillin, 100 μg/mL streptomycin, 0.25 μg/mL amphotericin B, 1% FBS, 1× insulin-transferrin-selenium and 1 μM ATRA for 48 h to overcome the Crabtree effect. […] The cytotoxicity and intracellular ATP content were measured concurrently using Mitochondrial ToxGlo™ kit (Promega, Madison, Wis.) using manufacturer's protocol. Mitochondrial ToxGlo™ assay measures the cell viability using fluorogenic peptide bis-alanine-alanine-phenylalanine-R110 (bis-AAF-R110). Bis-AAF-R110 is a selective peptide that measures protease activity in dead cells since it is impermeable to live cells. Here, the fluorescence derived from metabolized bis-AAF-R110 was measured at different concentrations of the test compounds and compared to control. As the concentration of cytotoxic compound increases, the number of dead cells increases, leading to a higher fluorescence signal. ATP is measured by adding the ATP Detection Reagent, resulting in cell lysis and generation of a luminescent signal proportional to the amount of ATP present. […]

[1] = In vivo pharmacokinetic studies in dogs; details: for acute toxicity and fatality in vivo: PK study
Protocol: All experiments were approved by the Animal Research Committee for Animal Experimentation of Toho University (No. 12-52-151) and performed in accordance with the Guidelines for the Care and Use of Laboratory Animals of Toho University. […] Plasma samples were stored at −80° C. and thawed in ice before use.
Ice cold NDEA internal standard (IS) solution was used for protein precipitation at a plasma:IS ratio of 1:3. The mixture was vortex-mixed for 1 min, followed by centrifugation at 14,000 g at 4° C. for 15 min. The supernatant was then transferred into a vial for LC/MS/MS analysis.
The LC/MS/MS system consisted of Infinity ultra-high-pressure liquid chromatography (UHPLC) system (Agilent Technologies Inc., Santa Clara, Calif.) with the AB SCIEX QTRAP® 5500 tandem mass spectrometry (MS/MS) system (AB SCIEX, Framingham, Mass.). MultiQuant software version 1.4.0.18067 (Applied Biosystems) was used to perform all chromatographic peak integration.
Chromatographic separation was performed using ACQUITY UPLC BEH C18 column, 1.7 μm, 2.1×50 mm (Waters, Milford, Mass.), with a gradient elution programme. The mobile phases were 0.2% acetic acid in 5 mM ammonium acetate in water (A) and 0.2% acetic acid in ACN (B). The elution conditions were linear gradient 30-95% B (0-1.60 min), isocratic at 95% B (1.61-1.99 min), and isocratic at 30% B (2.00-2.50 min). Multiple reaction monitoring (MRM) transitions were optimized for NDEA (internal standard, IS), dronedarone and poyendarone.
Individual pharmacokinetic parameters were estimated using NCA for IV bolus data (Model 201), using WinNonlin® (Pharsight, USA). […] Data points included in the calculation of Lambda Z (Az) were first determined by WinNonlin®, and then visually assessed and modified accordingly. Other parameters calculated include apparent total plasma clearance (CL), apparent volume of distribution based on terminal phase (Vz), apparent elimination half-life (T1/2), apparent volume at steady state (Vss), mean residence time (MRT) and MRT extrapolated to infinity (MRTinf). […]

CYP3A4 = target: T1, CYP3A4 (Homo sapiens, UniProt P08684); experiment: Metabolic stability (substrate depletion) with CYP3A4; assay type: in vitro ADME; details: for elimination rate constant k by CYP3A4 / half-life at 1 μM: 1 μM substrate, CYP3A4 10 pmol/mL; for CLint (CYP3A4): PBPK parameter, in vitro data obtained; for half-life at 1 μM: human, CYP3A4 enzyme, pH 7.4, read-out: T1/2 by CYP3A4; for Intrinsic clearance, CLint CYP3A4: substrate depletion
T1 construct: purchased BD Gentest (Woburn, Mass.)
Protocol: The metabolic stability experiments were performed to derive intrinsic clearance (CLint) values via the substrate depletion method. […] NADPH A was subsequently added to initiate the reaction. […] The reaction mixtures were incubated at 37° C. with gentle agitation. At the respective time points (0-60 min), 80 μL of the reaction mixture was quenched using an equal volume of ice-cold ACN with 1 μM tamoxifen as internal standard (IS). The samples were then centrifuged at 3220 g at 4° C. for 30 min before transferring the supernatant to a 96-well plate for liquid chromatography-tandem mass spectrometry (LC-MS/MS) analysis.
The mean of triplicate peak area ratios for each compound was normalized to that of the same compound at the 0 min time point to obtain the percentage of substrate remaining at each time point. This was plotted against incubation time for each compound and the data was then fitted to a one-phase decay model using GraphPad Prism software (version 8.02; GraphPad Inc., San Diego, Calif.) to obtain an estimation for the elimination rate constant (k). CLint was then calculated based on equation 3:
In equation 3, k=elimination rate constant (min^−1); V=volume of incubation mixture (mL); P=amount of protein in mixture (mg).

[2] = cited from earlier work

T1 sequence (P08684 whole entry): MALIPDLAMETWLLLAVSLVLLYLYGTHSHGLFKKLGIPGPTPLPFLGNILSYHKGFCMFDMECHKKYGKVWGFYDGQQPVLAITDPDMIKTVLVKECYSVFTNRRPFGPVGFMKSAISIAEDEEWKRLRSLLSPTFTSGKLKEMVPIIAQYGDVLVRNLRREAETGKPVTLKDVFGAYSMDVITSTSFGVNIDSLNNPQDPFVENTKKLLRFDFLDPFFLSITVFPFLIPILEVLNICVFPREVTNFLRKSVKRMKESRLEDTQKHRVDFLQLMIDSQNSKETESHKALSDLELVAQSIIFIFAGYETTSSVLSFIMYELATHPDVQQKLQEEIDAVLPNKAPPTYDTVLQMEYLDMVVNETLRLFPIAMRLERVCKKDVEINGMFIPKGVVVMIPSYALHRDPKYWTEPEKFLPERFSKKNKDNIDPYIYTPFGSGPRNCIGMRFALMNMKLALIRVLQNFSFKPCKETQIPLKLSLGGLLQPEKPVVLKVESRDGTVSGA

Structure (SMILES) | IC50 (H9c2 cells) | acute toxicity and fatality in vivo [1] | elimination rate constant k by CYP3A4 (CYP3A4) | CLint (CYP3A4) (CYP3A4) | half-life at 1 μM (CYP3A4) | Intrinsic clearance, CLint CYP3A4 (CYP3A4) | Kp of tissues: Adipose ([2]; PBPK parameter) | Kp of tissues: Heart ([2]; PBPK parameter) | Kp of tissues: Kidney ([2]; PBPK parameter) | log P ([2]; PBPK parameter) | other results
CCCCc1oc2ccc(NS(C)(=O)=O)cc2c1C(=O)c1ccc(OCCCN(CCCC)CCCC)cc1.Cl [Dronedarone] | 3.1 µM | No acute toxicity nor fatality | 0.04144 min⁻¹ | 114.739* μL/min/mg microsomal protein | 16.7 min | 8.29 µL/min/pmol | 1 | 1 | 1 | 6.46 | Intrinsic clearance, CLint CYP3A4 (CYP3A4; listed as dronedarone): 8.288 µL/min/pmol; Caco-2 permeability ([2]; PBPK parameter): 0.595 ×10⁻⁶ cm/s; Kp of tissues: Liver ([2]; PBPK parameter): 38.05; Kp of tissues: Lung ([2]; PBPK parameter): 64.01; fu ([2]; PBPK parameter): 0.003; pKa ([2]; PBPK parameter, monoprotic base): 9.4; Solubility-pH profile ([2]; pH 3): 1.6 mg/mL; Solubility-pH profile ([2]; pH 4): 1.6 mg/mL; Solubility-pH profile ([2]; pH 5): 1.5 mg/mL; Solubility-pH profile ([2]; pH 6): 0.1 mg/mL; Solubility-pH profile ([2]; pH 7): 0.01 mg/mL
Cl.[2H]c1c(NS(C)(=O)=O)c([2H])c2c(C(=O)c3ccc(OCCCN(CCCC)CCCC)cc3)c(CCCC)oc2c1[2H] [Poyendarone, Methanesulfonamide, N-(2-butyl-3-(4-(3-(dibutylamino)propoxy)benzoyl)-1-benzo(4,6,7-d3)-furan-5-yl)hydrochloride] | 41.5 µM | No acute toxicity nor fatality | 0.0918 min⁻¹ | 115.2016* μL/min/mg microsomal protein | 7.55 min | 9.18 µL/min/pmol | 1 | 1 | 1 | 6.442 | plasma disposition profile, clearance and volume of distribution compared between poyendarone and dronedarone ([1]; 3.0 mg/kg IV bolus, 3 mg/kg): comparable; Caco-2 permeability ([2]; PBPK parameter, assumed): 0.595 ×10⁻⁶ cm/s; Kp of tissues: Liver ([2]; PBPK parameter, assumed): 38.05; Kp of tissues: Lung ([2]; PBPK parameter, assumed): 64.01; pKa ([2]; PBPK parameter, assumed): 9.4; Additional HLM clearance ([2]; assumed): 55 μL/min/mg microsomal protein; Intrinsic solubility ([2]; assumed): 2.01 × 10^−3 (assumed) mg/mL
